# Results published in patent US20140309210A1, “INDAZOLE COMPOUNDS, COMPOSITIONS AND METHODS OF USE THEREOF” (Genentech, Inc., priority 2011, published 2014).
# Target: T1, purified ITK (Invitrogen PV3875) (Homo sapiens, UniProt Q08881)
# T1 construct: purchased Invitrogen PV3875
# T1 sequence (Q08881 1-620): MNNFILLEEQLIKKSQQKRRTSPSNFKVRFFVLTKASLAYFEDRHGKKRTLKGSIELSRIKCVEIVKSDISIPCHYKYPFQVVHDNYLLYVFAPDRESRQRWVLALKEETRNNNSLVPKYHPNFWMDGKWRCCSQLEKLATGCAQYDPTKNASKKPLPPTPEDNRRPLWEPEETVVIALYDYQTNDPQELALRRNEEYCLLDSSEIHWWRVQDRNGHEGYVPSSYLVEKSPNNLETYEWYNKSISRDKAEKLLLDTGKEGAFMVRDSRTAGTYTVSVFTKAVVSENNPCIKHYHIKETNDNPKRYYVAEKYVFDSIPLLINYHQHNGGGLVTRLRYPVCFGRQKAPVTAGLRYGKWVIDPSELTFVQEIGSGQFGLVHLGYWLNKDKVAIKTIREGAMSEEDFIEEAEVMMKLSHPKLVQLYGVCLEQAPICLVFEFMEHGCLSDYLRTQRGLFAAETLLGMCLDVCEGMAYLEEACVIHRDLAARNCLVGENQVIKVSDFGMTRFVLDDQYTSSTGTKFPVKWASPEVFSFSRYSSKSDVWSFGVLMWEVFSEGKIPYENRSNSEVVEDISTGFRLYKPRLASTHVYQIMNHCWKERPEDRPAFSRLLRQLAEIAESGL
# Assay: ITK peptide phosphorylation assay (Caliper LabChip or LCMS)
# Type: biochemical
# Conditions: Table 1, Examples 141-279
# How it was run: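 Purified human ITK peptide phosphorylation, quenched with EDTA (50 mM final) for Caliper LabChip separation or TCA (5% v/v final) for UPLC-MS/MS MRM quantification. Ki derived via Morrison tight-binding equation, corrected for competitive inhibition using ATP concentration relative to Km,app.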
row,SMILES,Ki
1,"N#Cc1cccc(Cn2cc(NC(=O)c3n[nH]c4cc(-c5cccnc5)c(F)cc34)cn2)c1 [Example 153, N-[1-[(3-cyanophenyl)meth-yl]pyrazol-4-yl]-5-fluoro-6-(3-pyridyl)-1H-indazole-3-carboxamide]",57.5 nM
2,"N#Cc1cccc(Cn2cc(NC(=O)c3n[nH]c4cc(-c5cncnc5)c(F)cc34)cn2)c1 [Example 154, N-[1-[(3-cyanophenyl)meth-yl]pyrazol-4-yl]-5-fluoro-6-pyrimidin-5-yl-1H-indazole-3-carboxamide]",112 nM
3,"N#Cc1cccc(Cn2cc(NC(=O)c3n[nH]c4cc(-c5cc[nH]n5)c(F)cc34)cn2)c1 [Example 155, N-[1-[(3-cyanophenyl)meth-yl]pyrazol-4-yl]-5-fluoro-6-(1H-pyrazol-3-yl)-1H-indazole-3-carboxamide]",99.9 nM
4,"Cc1cc2c(C(=O)Nc3cnn(Cc4cccc(C#N)c4)c3)n[nH]c2cc1-c1cc[nH]n1 [Example 156, N-[1-[(3-cyanophenyl)meth-yl]pyrazol-4-yl]-5-methyl-6-(1H-pyrazol-3-yl)-1H-indazole-3-carboxamide]",80.8 nM
5,"CN(C)CCC(c1ccccc1)n1cc(NC(=O)c2n[nH]c3cc(-c4cccnc4)ccc23)cn1 (stereo not drawn) [Example 157, N-[1-[3-(dimethylamino)-1-phenyl-propyl]pyrazol-4-yl]-6-(3-pyridyl)-1H-indazole-3-carboxamide]",7.81 nM
6,"O=C(Nc1cnn(Cc2csc(N3CCC(O)C3)n2)c1)c1n[nH]c2cc(-c3cn[nH]c3)ccc12 (stereo not drawn) [Example 158, N-[1-[[2-(3-hydroxypyrrolidin-1-yl)thiazol-4-yl]methyl]pyrazol-4-yl]-6-(1H-pyrazol-4-yl)-1H-indazole-3-carboxamide]",3.93 nM
7,"O=C(Nc1cnn(Cc2csc(N3CCC(O)CC3)n2)c1)c1n[nH]c2cc(-c3cn[nH]c3)ccc12 [Example 159, N-[1-[[2-(4-hydroxy-1-piperidyl)thiazol-4-yl]methyl]pyrazol-4-yl]-6-(1H-pyrazol-4-yl)-1H-indazole-3-carboxamide]",3.11 nM
8,"O=C(Nc1cnn(Cc2csc(C3CCNCC3)n2)c1)c1n[nH]c2cc(-c3cn[nH]c3)ccc12 [Example 160, N-[1-[[2-(4-piperidyl)thiazol-4-yl]methyl]pyrazol-4-yl]-6-(1H-pyrazol-4-yl)-1H-indazole-3-carboxamide]",4.65 nM
9,"O=C(Nc1cnn(Cc2cccc(N3CCC(O)C3)c2)c1)c1n[nH]c2cc(-c3cn[nH]c3)ccc12 (stereo not drawn) [Example 161, N-[1-[[3-(3-hydroxypyrrolidin-1-yl)phenyl]meth-yl]pyrazol-4-yl]-6-(1H-pyrazol-4-yl)-1H-indazole-3-carboxamide]",1.15 nM
10,"O=C(Nc1cnn(C(CCN2CCOCC2)c2ccccc2)c1)c1n[nH]c2cc(-c3cn[nH]c3)ccc12 (stereo not drawn) [Example 162, N-[1-(3-morpholino-1-phenyl-propyl)pyrazol-4-yl]-6-(1H-pyrazol-4-yl)-1H-indazole-3-carboxamide]",0.28 nM
11,"O=C(Nc1cnn(Cc2cncs2)c1)c1n[nH]c2cc(-c3cn[nH]c3)ccc12 [Example 163, 6-(1H-pyrazol-4-yl)-N-[1-(thiazol-5-ylmethyl)pyrazol-4-yl]-1H-indazole-3-carboxamide]",1.16 nM
12,"N#Cc1cccc(Cn2cc(NC(=O)c3n[nH]c4cc(-c5cncnc5)ccc34)cn2)c1 [Example 164, N-[1-[(3-cyanophenyl)meth-yl]pyrazol-4-yl]-6-pyrimidin-5-yl-1H-indazole-3-carboxamide]",16.9 nM
13,"CN1CC=C(c2ccc3c(C(=O)Nc4cnn(Cc5cccc(C#N)c5)c4)n[nH]c3c2)CC1 [Example 165, N-[1-[(3-cyanophenyl)meth-yl]pyrazol-4-yl]-6-(1-methyl-3,6-dihydro-2H-pyridin-4-yl)-1H-indazole-3-carboxamide]",654 nM
14,"COc1cncc(-c2ccc3c(C(=O)Nc4cnn(Cc5cccc(C#N)c5)c4)n[nH]c3c2)c1 [Example 166, N-[1-[(3-cyanophenyl)meth-yl]pyrazol-4-yl]-6-(5-methoxy-3-pyridyl)-1H-indazole-3-carboxamide]",7.74 nM
15,"O=C(Nc1cnn(Cc2c[nH]cn2)c1)c1n[nH]c2cc(-c3cn[nH]c3)ccc12 [Example 167, N-[1-(1H-imidazol-4-ylmethyl)pyrazol-4-yl]-6-(1H-pyrazol-4-yl)-1H-indazole-3-carboxamide]",7.68 nM
16,"O=C(Nc1cn[nH]c1)c1n[nH]c2cc(-c3cn[nH]c3)ccc12 [Example 168, N,6-bis(1H-pyrazol-4-yl)-1H-indazole-3-carboxamide]",21.6 nM
17,"O=C(Nc1cnn(CCC2CCCCC2)c1)c1n[nH]c2cc(-c3cn[nH]c3)ccc12 [Example 169, N-[1-(2-cyclohexylethyl)py-razol-4-yl]-6-(1H-pyrazol-4-yl)-1H-indazole-3-carboxamide]",7.65 nM
18,"CC(C)(O)Cn1cc(NC(=O)c2n[nH]c3cc(-c4cn[nH]c4)ccc23)cn1 [Example 170, N-[1-(2-hydroxy-2-methyl-propyl)pyrazol-4-yl]-6-(1H-pyrazol-4-yl)-1H indazole-3-carboxamide]",8.74 nM
19,"CCN(CC)CCn1cc(NC(=O)c2n[nH]c3cc(-c4cn[nH]c4)ccc23)cn1 [Example 171, N-[1-[2-(diethylamino)eth-yl]pyrazol-4-yl]-6-(1H-pyrazol-4-yl)-1H-indazole-3-carboxamide]",7.99 nM
20,"CN1CCC(Nc2ccc3c(C(=O)Nc4cnn(Cc5cccc(C#N)c5)c4)n[nH]c3c2)C1 (stereo not drawn) [Example 172, N-[1-[(3-cyanophenyl)meth-yl]pyrazol-4-yl]-6-[(1-methylpyrrolidin-3-yl)amino]-1H-indazole-3-carboxamide]",1400 nM

# Other lines, results leading:
row,Ki,SMILES
1,1200 nM,"N#Cc1cccc(Cn2cc(NC(=O)c3n[nH]c4cc(NC5CCNCC5)ccc34)cn2)c1 [Example 173, N-[1-[(3-cyanophenyl)meth-yl]pyrazol-4-yl]-6-(4-piperidylamino)-1H-indazole-3-carboxamide]"
2,1.42 nM,"CC[C@H](c1cscn1)n1cc(NC(=O)c2n[nH]c3cc(-c4cn[nH]c4)ccc23)cn1 [Example 174, 6-(1H-pyrazol-4-yl)-N-[1-[(1R)-1-thiazol-4-ylpropyl]pyrazol-4-yl]-1H-indazole-3-carboxamide]"
3,0.7 nM,"CC[C@@H](c1cscn1)n1cc(NC(=O)c2n[nH]c3cc(-c4cn[nH]c4)ccc23)cn1 [Example 175, 6-(1H-pyrazol-4-yl)-N-[1-[(1S)-1-thiazol-4-ylpropyl]pyrazol-4-yl]-1H-indazole-3-carboxamide]"
4,374 nM,"CN1CCN(c2ccc3c(C(=O)Nc4cnn(Cc5cccc(C#N)c5)c4)n[nH]c3c2)CC1 [Example 176, N-[1-[(3-cyanophenyl)meth-yl]pyrazol-4-yl]-6-(4-methylpiperazin-1-yl)-1H-indazole-3-carboxamide]"
5,7.5 nM,"O=C(Nc1cnn([C@@H](CO)c2cscn2)c1)c1n[nH]c2cc(-c3cn[nH]c3)ccc12 [Example 177, N-[1-[(1R)-2-hydroxy-1-thiazol-4-yl-ethyl]pyrazol-4-yl]-6-(1H-pyrazol-4-yl)-1H-indazole-3-carboxamide]"
6,6.19 nM,"O=C(Nc1cnn([C@H](CO)c2cscn2)c1)c1n[nH]c2cc(-c3cn[nH]c3)ccc12 [Example 178, N-[1-[(1S)-2-hydroxy-1-thiazol-4-yl-ethyl]pyrazol-4-yl]-6-(1H-pyrazol-4-yl)-1H-indazole-3-carboxamide]"
7,154 nM,"N#Cc1cccc(Cn2cc(NC(=O)c3n[nH]c4cc(C5CCNCC5)ccc34)cn2)c1 [Example 179, N-[1-[(3-cyanophenyl)meth-yl]pyrazol-4-yl]-6-(4-piperidyl)-1H-indazole-3-carboxamide]"
8,2.71 nM,"N#Cc1cccc(Cn2cc(NC(=O)c3n[nH]c4ccc(NC5CCNCC5)cc34)cn2)c1 [Example 180, N-[1-[(3-cyanophenyl)methyl]pyrazol-4-yl]-5-(4-piperidylamino)-1H-indazole-3-carboxamide]"
9,1.07 nM,"O=C(Nc1cnn(Cc2ccccc2)c1)c1n[nH]c2cc(-c3cn[nH]c3)ccc12 [Example 181, N-(1-benzylpyrazol-4-yl)-6-(1H-pyrazol-4-yl)-1H-indazole-3-carboxamide]"
10,240 nM,"N#Cc1cccc(Cn2cc(NC(=O)c3n[nH]c4cc(C5CNC5)ccc34)cn2)c1 [Example 182, 6-(azetidin-3-yl)-N-[1-[(3-cyanophenyl)meth-yl]pyrazol-4-yl]-1H-indazole-3-carboxamide]"
11,7.52 nM,"N#Cc1cccc(Cn2cc(NC(=O)c3n[nH]c4ccc(NC5CCNC5)cc34)cn2)c1 (stereo not drawn) [Example 183, N-[1-[(3-cyanophenyl)meth-yl]pyrazol-4-yl]-5-(pyrrolidin-3-ylamino)-1H-indazole-3-carboxamide]"
12,1.33 nM,"CN1CCC(Nc2ccc3[nH]nc(C(=O)Nc4cnn(Cc5cccc(C#N)c5)c4)c3c2)CC1 [Example 184, N-[1-[(3-cyanophenyl)meth-yl]pyrazol-4-yl]-5-[(1-methyl-4-piperidyl)amino]-1H-indazole-3-carboxamide]"
13,759 nM,"O=C(Nc1cnn(C2CCOc3ccccc32)c1)c1n[nH]c2cc(-c3cn[nH]c3)ccc12 (stereo not drawn) [Example 185, N-(1-chroman-4-ylpyrazol-4-yl)-6-(1H-pyrazol-4-yl)-1H-indazole-3-carboxamide]"
